Key:
Assay type in all cases: binding
[1] = target: T1, Bcl-b (Homo sapiens, UniProt Q9HD36); assay: Bclb/Bim fluorescence polarization assay (FPA); settings: BIM BH3 peptide 5 nM, Bcl-b 40 nM, Ki calculated from FPA data
T1 construct: without their C-terminal transmembrane domain; GST; made in house
T1 sequence (Q9HD36 1-182 limits assumed): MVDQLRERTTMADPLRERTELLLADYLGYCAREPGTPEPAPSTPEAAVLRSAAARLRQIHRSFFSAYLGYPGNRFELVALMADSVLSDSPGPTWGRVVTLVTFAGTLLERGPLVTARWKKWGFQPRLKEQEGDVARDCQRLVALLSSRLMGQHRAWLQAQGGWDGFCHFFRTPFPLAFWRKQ
Description: (§1) Compounds were profiled for their ability to disrupt in vitro binding interactions in fluorescence polarization assays (FPAs) using synthetic fluorochrome-labeled Bcl homology 3 (BH3) peptides derived from BIM [(FAM)-Ahx-[…]-NH2 (SEQ ID NO: 1) (GenBank Accession No. O43521)] or BAK [Ac-GQVGRQLAIIGE-LYS(FAM)-INR-NH2 (SEQ ID NO:2) (GenBank Accession No. Q16611) amino acid sequences and four bacterial recombinant proteins [Bcl-b (GenBank Accession No. Q9HD36), Bcl-2 (GenBank Accession No. P10415), Bcl-Xl (GenBank Accession No. Q07817), Mcl-1 (GenBank Accession No. Q07820)] without their C-terminal transmembrane domain. Proteins were purified from bacterial lysates using their glutathione S-transferase (GST)-tag (Bcl-b, Bcl-2, Mcl-1) or His6-tag (Bcl-Xl) and following one-step affinity chromatography procedures. Dissociation constants (Kd) for peptide binding protein were determined by fluorescence polarization in FPAs measuring BIM BH3 peptide binding Bcl-b, Mcl-1 or Bcl-2 protein or BAK BH3 peptide binding Bcl-Xl protein. The Kd values were generated by fitting the experimental data using a sigmoidal dose-response nonlinear regression model.
(§2) Compound inhibitory concentration values, IC50 (50% reduction in fluorescence polarization), were determined using fluorochrome-labeled BH3 peptides and recombinant Bcl proteins in fluorescence polarization assays (FPAs). Compounds diluted in DMSO (0.5 ul) were transferred (in duplicate) to individual wells of a 384-well plate. The fluorochrome-labeled peptide was added followed by recombinant protein addition. Each binding FPA reaction (50 ul) contained BIM BH3 peptide (5 nM) or BAK BH3 peptide (1.5 nM) and Bcl-b (40 nM), Mcl-1 (28 nM), Bcl-2 (11 nM) or Bcl-Xl. (5 nM) protein suspended in assay buffer [20 mM sodium phosphate, pH 7.4, 1 mM EDTA, 50 mM NaCl., 0.05% Pluronic F68]. Reaction mixtures were incubated at ambient temperature for 60 minutes prior to measuring polarization (mP) using an Analyst (LJL, Molecular Devices, Sunnyvale, Calif.) programmed to detect an emission wavelength of 530 nm after excitation (excitation wavelength=485 nm).
(§3) Competitive compound inhibition constants (Ki) were calculated using FPA experimental data and a mathematical equation, Ki=[I]50/([L]50/Kd+[P]0/Kd+1), where [I]50 denotes free inhibitor concentration at 50% inhibition, [L]50 is free labeled ligand concentration at 50% inhibition, [P]0 is free protein concentration at 0% inhibition, and Kd is the dissociation constant of the protein-ligand complex.

[2] = target: T2, Mcl-1 (Homo sapiens, UniProt Q07820); assay: Mcl-1/Bim fluorescence polarization assay (FPA); settings: BIM BH3 peptide 5 nM, Mcl-1 28 nM, Ki calculated from FPA data
T2 construct: without their C-terminal transmembrane domain; GST; made in house
T2 sequence (Q07820 1-327 limits assumed): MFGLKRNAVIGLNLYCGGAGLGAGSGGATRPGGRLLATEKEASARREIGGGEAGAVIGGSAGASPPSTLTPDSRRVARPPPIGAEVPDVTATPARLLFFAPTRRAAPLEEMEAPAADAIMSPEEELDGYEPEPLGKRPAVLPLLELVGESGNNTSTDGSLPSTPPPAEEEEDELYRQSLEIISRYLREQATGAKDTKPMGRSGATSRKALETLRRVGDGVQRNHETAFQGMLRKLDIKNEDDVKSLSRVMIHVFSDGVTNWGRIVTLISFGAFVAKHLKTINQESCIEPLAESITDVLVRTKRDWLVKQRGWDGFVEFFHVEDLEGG
Description: as §1, §2, §3

[3] = target: T3, Bcl-2 (Homo sapiens, UniProt P10415); assay: Bcl2/Bim fluorescence polarization assay (FPA); settings: BIM BH3 peptide 5 nM, Bcl-2 11 nM, Ki calculated from FPA data
T3 construct: without their C-terminal transmembrane domain; GST; made in house
T3 sequence (P10415 1-211 limits assumed): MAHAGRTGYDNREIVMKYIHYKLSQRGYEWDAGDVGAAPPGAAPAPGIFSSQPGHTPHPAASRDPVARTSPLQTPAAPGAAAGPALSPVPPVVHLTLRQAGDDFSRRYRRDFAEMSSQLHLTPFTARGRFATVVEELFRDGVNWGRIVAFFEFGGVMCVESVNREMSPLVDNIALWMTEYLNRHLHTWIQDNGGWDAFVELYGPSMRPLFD
Description: as §1, §2, §3

| Compound | Ki [1] [nM] | Ki [2] [nM] | Ki [3] [nM] |
| --- | --- | --- | --- |
| COC(=O)c1cc(Cl)cc(S(=O)(=O)N(Cc2ccc(F)cc2)Cc2cccc(-c3ccc(Cl)cc3)c2)c1O [Example 226, Methyl 5-chloro-3-(N-((4′-chloro-biphenyl-3-yl)methyl)-N-(4-fluorobenzyl)sulfamoyl)-2-hydroxybenzoate] | 500 | 2280 | 3730 |
| Cc1cccc(CN(Cc2ccc(F)cc2)S(=O)(=O)c2cc(Cl)cc(Cl)c2O)c1 [Example 266, 3,5-Dichloro-N-(4-fluorobenzyl)-2-hydroxy-N-(3-methylbenzyl)benzenesulfonamide] | 300 | 1680 | 720 |
| O=S(=O)(c1cc(Cl)cc(Cl)c1O)N(Cc1ccc(Cl)cc1)Cc1cccc(-c2ccc(Cl)cc2)n1 [Example 274, 3,5-Dichloro-N-(4-chlorobenzyl)-N-((6-(4-chlorophenyl)pyridin-2-yl)methyl)-2-hydroxybenzenesulfonamide] | 450 | 1570 | 520 |

Stronger by Ki [1], values ahead:

| Ki [1] [nM] | Ki [2] [nM] | Ki [3] [nM] | Compound |
| --- | --- | --- | --- |
| 140 | 2120 | 130 | CCCCc1ccc(-c2cccc(CN(Cc3ccc(F)cc3)S(=O)(=O)c3cc(Cl)cc(Cl)c3O)c2)cc1 [Example 256, N-((4′-Butylbiphenyl-3-yl)methyl)-3,5-dichloro-N-(4-fluorobenzyl)-2-hydroxybenzenesulfonamide] |
| 110 | 470 | 120 | COc1c(CN(Cc2ccc(F)cc2)S(=O)(=O)c2cc(Cl)cc(Cl)c2O)cccc1-c1ccc(Cl)cc1 [Example 240, 3,5-Dichloro-N-((4′-chloro-2-methoxybiphenyl-3-yl)methyl)-N-(4-fluorobenzyl)-2-hydroxybenzenesulfonamide] |
| 90 | 50 | 90 | O=S(=O)(c1cc(Cl)cc(Cl)c1O)N(Cc1ccc(F)cc1)Cc1cccc(-c2ccc(Cl)cc2)c1 [Example 232, 3,5-Dichloro-N-((4′-chlorobiphenyl-3-yl)methyl)-N-(4-fluorobenzyl)-2-hydroxybenzenesulfonamide] |
| 60 | 40 | 80 | CCCCCCCCc1ccc(CN(Cc2cccc(Oc3ccc(F)cc3)c2)S(=O)(=O)c2cc(Cl)cc(Cl)c2O)cc1 [Example 235, 3,5-Dichloro-N-(3-(4-fluorophenoxy)benzyl)-2-hydroxy-N-(4-octylbenzyl)benzenesulfonamide] |

Source: patent US8501992B2, “Hydroxyphenyl sulfonamides as antiapoptotic bcl inhibitors” (Bristol-Myers Squibb Company, priority 2008, dated 2013)
